Laboratory results reported in patent publication US20240415914A1, “Water Dispersible Cannabinoid Compositions” (priority 2021, published 2024).
Read-outs that look alike come from different tables or passages of the source.

Legend:
[1] = assay type: physicochemical; settings: stored at room temperature (21-25° C.)
Experimental: At each time period, 0.05 g of powder was dissolved in 10 ml-15 of ethanol, diluted to fall within the analytical range, and injected into the LCMSMS for analysis.

[2] = Stability of cannabinoid and Vitamin E components of Beverage 2 (AB Red) stored at 8° C. and 21-25° C., LCMSMS over 570 days; settings: 8° C.
Experimental: The LCMSMS was calibrated for 0-50 ng/ml cannabinoids with the same resin material used in the preparation of the concentrates. At each time period, 100 μml of beverage was diluted with 10 ml of methanol and injected into the LCMSMS for analysis.

Cc1c(C)c2c(c(C)c1OC(=O)CCC(=O)O)CC[C@@](C)(CCC[C@H](C)CCC[C@H](C)CCCC(C)C)O2 [α-Tocopheryl succinate]
Stability in Powder Concentrate (content by LCMSMS) ([1]; day 0): 1.82 mg/g powder | Stability in Powder Concentrate (content by LCMSMS) ([1]; day 1): 1.81 mg/g powder | Stability in Powder Concentrate (content by LCMSMS) ([1]; day 2): 1.81 mg/g powder | Stability in Powder Concentrate (content by LCMSMS) ([1]; day 3): 1.81 mg/g powder | Stability in Powder Concentrate (content by LCMSMS) ([1]; day 5): 1.83 mg/g powder | Stability in Powder Concentrate (content by LCMSMS) ([1]; day 8): 1.90 mg/g powder | Stability in Powder Concentrate (content by LCMSMS) ([1]; day 9): 1.89 mg/g powder | Stability in Powder Concentrate (content by LCMSMS) ([1]; day 10): 1.87 mg/g powder | Stability in Powder Concentrate (content by LCMSMS) ([1]; day 11): 1.89 mg/g powder | Stability in Powder Concentrate (content by LCMSMS) ([1]; day 12): 1.87 mg/g powder | Stability in Powder Concentrate (content by LCMSMS) ([1]; day 15): 1.87 mg/g powder | Stability in Powder Concentrate (content by LCMSMS) ([1]; day 16): 1.83 mg/g powder | Stability in Powder Concentrate (content by LCMSMS) ([1]; day 17): 1.88 mg/g powder | Stability in Powder Concentrate (content by LCMSMS) ([1]; day 18): 1.77 mg/g powder | Stability in Powder Concentrate (content by LCMSMS) ([1]; day 19): 1.85 mg/g powder | Stability in Powder Concentrate (content by LCMSMS) ([1]; day 22): 1.78 mg/g powder | Stability in Powder Concentrate (content by LCMSMS) ([1]; day 23): 1.80 mg/g powder | Stability in Powder Concentrate (content by LCMSMS) ([1]; day 24): 1.90 mg/g powder | Stability in Powder Concentrate (content by LCMSMS) ([1]; day 25): 1.90 mg/g powder | Stability in Powder Concentrate (content by LCMSMS) ([1]; day 26): 1.76 mg/g powder | Stability in Powder Concentrate (content by LCMSMS) ([1]; day 29): 1.87 mg/g powder | Stability in Powder Concentrate (content by LCMSMS) ([1]; day 30): 1.80 mg/g powder | Stability in Powder Concentrate (content by LCMSMS) ([1]; day 60): 1.77 mg/g powder | Stability in Powder Concentrate (content by LCMSMS) ([1]; day 90): 1.83 mg/g powder | Stability in Powder Concentrate (content by LCMSMS) ([1]; day 120): 1.83 mg/g powder | Stability in Powder Concentrate (content by LCMSMS) ([1]; day 150): 1.89 mg/g powder | Stability in Powder Concentrate (content by LCMSMS) ([1]; day 180): 1.77 mg/g powder | Stability in Powder Concentrate (content by LCMSMS) ([1]; day 210): 1.80 mg/g powder | Stability in Powder Concentrate (content by LCMSMS) ([1]; day 240): 1.84 mg/g powder | Stability in Powder Concentrate (content by LCMSMS) ([1]; day 270): 1.87 mg/g powder | Stability in Powder Concentrate (content by LCMSMS) ([1]; day 300): 1.84 mg/g powder | Stability in Powder Concentrate (content by LCMSMS) ([1]; day 330): 1.83 mg/g powder | Stability in Powder Concentrate (content by LCMSMS) ([1]; day 360): 1.79 mg/g powder | Stability in Powder Concentrate (content by LCMSMS) ([1]; day 390): 1.87 mg/g powder | Stability in Powder Concentrate (content by LCMSMS) ([1]; day 420): 1.82 mg/g powder | Stability in Powder Concentrate (content by LCMSMS) ([1]; day 450): 1.80 mg/g powder | Stability in Powder Concentrate (content by LCMSMS) ([1]; day 480): 1.76 mg/g powder | Stability in Powder Concentrate (content by LCMSMS) ([1]; day 510): 1.76 mg/g powder | Stability in Powder Concentrate (content by LCMSMS) ([1]; day 540): 1.80 mg/g powder | Stability in Powder Concentrate (content by LCMSMS) ([1]; day 570): 1.77 mg/g powder | Stability of Vitamin Es in AB Red ([2]; 0 days): 12.5 µg/mL | Stability of Vitamin Es in AB Red ([2]; 1 days): 11.7 µg/mL | Stability of Vitamin Es in AB Red ([2]; 2 days): 11.7 µg/mL | Stability of Vitamin Es in AB Red ([2]; 3 days): 11.7 µg/mL | Stability of Vitamin Es in AB Red ([2]; 5 days): 11.5 µg/mL | Stability of Vitamin Es in AB Red ([2]; 8 days): 12.6 µg/mL | Stability of Vitamin Es in AB Red ([2]; 9 days): 11.8 µg/mL | Stability of Vitamin Es in AB Red ([2]; 10 days): 12.6 µg/mL | Stability of Vitamin Es in AB Red ([2]; 11 days): 12.1 µg/mL | Stability of Vitamin Es in AB Red ([2]; 12 days): 12.7 µg/mL | Stability of Vitamin Es in AB Red ([2]; 15 days): 12.5 µg/mL | Stability of Vitamin Es in AB Red ([2]; 16 days): 11.5 µg/mL | Stability of Vitamin Es in AB Red ([2]; 17 days): 12.4 µg/mL | Stability of Vitamin Es in AB Red ([2]; 18 days): 11.9 µg/mL | Stability of Vitamin Es in AB Red ([2]; 19 days): 11.7 µg/mL | Stability of Vitamin Es in AB Red ([2]; 22 days): 11.9 µg/mL | Stability of Vitamin Es in AB Red ([2]; 23 days): 12.0 µg/mL | Stability of Vitamin Es in AB Red ([2]; 24 days): 12.2 µg/mL | Stability of Vitamin Es in AB Red ([2]; 25 days): 12.0 µg/mL
